Key:
Mouse = assay: Four Plate Test, Mouse; format: in vivo; details: for Number of Punished Crossings % Change: change from vehicle control
Text: The Four Plate assay was run according to the procedure as described by Aron et al (Neuropharmacology, 10, 459-469, 1971). In this assay, the rodent experiences an electric shock upon crossing from one plate to another. Anxiolytics (such as benzodiazepines) increase the number of punished crossings.
Animals were placed individually in a white plastic enclosure containing a floor consisting of 4 metal plates connected to an electric shock generator (Apelex : Type 011346). The mouse was left to explore freely for 15 seconds. Then, every time the mouse crossed from one plate to another, it received a weak electric shock (2.5 mA, 1.5 s). The number of punished crossings were counted during a 1 minute test. Ten (10) mice were used for each study group. The test was performed blind.
(§1) Compound #8 was evaluated at 30 mg/kg, 60 mg/kg and 120 mg/kg doses, administered p.o. 60 minutes before the test, and compared with a vehicle control group. Compound #8 was homogenized and dispersed using a mortar and a pestle in 0.2% hydroxypropylmethylcellulose (HPMC) in distilled water, which served as the vehicle. As a positive control, Clobazam (32 mg/kg p.o.), was administered under the same experimental conditions. Clobazam as URBANYL®tablets (32 mg/kg p.o.) were dispersed in 0.2% hydroxypropylmethylcellulose (HPMC) in distilled water for administration. Each experiment therefore included 5 study groups of 10 mice each.
Data were analyzed by comparing groups treated with compound #8 with groups treated with vehicle control using unpaired Student's t tests. Table 5: Effect of Compound #8 in Four Plate

Male Rj:NMRI mice = assay: Elevated Plus Maze, Mouse (EPM); format: in vivo; details: for Closed Arms Number of Entries % change / Open Arms Number of Entries % change / Open Arms Time Spent (sec) % change: change from vehicle control
Text: Rodents avoid open spaces (in the case of the assay apparatus, the open arms of an elevated plus-maze). Compounds which have anti-anxiety activity increase exploratory activity of the rodents in the open arms of the elevated plus-maze. The EPM assay was run according to the procedure as described by Handley and Mithani (Naunyn. Schmied. Arch. Pharmacol., 327, 1-5, 1984).
Male Rj:NMRI mice, weighing 20 - 30 g (max. range per experiment = 5 g) at the beginning of the experiments, were obtained from Elevage Janvier, 53940 Le Genest-Saint-Isle, France and used in the assay. The animals were delivered to the laboratory at least 5 days before the experiments during which time they were acclimatized to laboratory conditions. The mice were housed in groups of 10 in Macrolon cages (25 x 19 x 13 cm) on wood litter (Litalabo-SPPS, 95100 Argenteuil, France) with free access to food (Code 113 - SAFE, 89290 Augy, France) and water until tested (or as indicated otherwise). The animal house was maintained under artificial lighting (12 hours) between 7:00 and 19:00 in a controlled ambient temperature of 21 ± 3°C, and relative humidity between 30-80%.
The elevated plus-maze consisted of 4 arms of equal length and width (14 x 5 cm) arranged in the form of a plus sign (+). Two opposite arms were enclosed by 12 cm high walls (closed arms). The 2 other arms had no walls (open arms). The maze was raised 56 cm above the floor. A mouse was placed in the centre of the plus-maze and left to explore the maze for 5 minutes. The number of entries into the open and closed arms and the time spent in the open arms was recorded. Ten (10) mice were used for each study group. The test was performed blind.
as §1, with “(16” for “(32”
Data were analyzed by comparing groups treated with compound #8 with groups treated with vehicle control using unpaired Student's t tests. Table 4: Effect of Compound #8 in EPM

[1] = 16 mg/kg p.o., positive control, same experimental conditions, t test vs vehicle p < 0.001
[2] = 16 mg/kg p.o., positive control
[3] = 30 mg/kg p.o. 60 minutes before the test
[4] = 60 mg/kg p.o. 60 minutes before the test
[5] = 120 mg/kg p.o. 60 minutes before the test
[6] = 30 mg/kg p.o. 60 minutes before the test, 5 minutes in maze, t test vs vehicle (NS)
[7] = 60 mg/kg p.o. 60 minutes before the test, 5 minutes in maze, t test vs vehicle p < 0.01
[8] = 120 mg/kg p.o. 60 minutes before the test, 5 minutes in maze, t test vs vehicle p < 0.05

Q: What does the source list for `CN1C(=O)CC(=O)N(c2ccccc2)c2cc(Cl)ccc21` [CLOBAZAM, Clobazam, reference compound]?
A: Number of Punished Crossings Mean ± S.E.M. (Mouse; 32 mg/kg p.o., positive control, same experimental conditions, t test vs vehicle p < 0.001): 9.9 ± 1.2 (***); Open Arms Number of Entries Mean ± S.E.M. (Male Rj:NMRI mice; [1]): 11.7 ± 1.1 (***); Open Arms Time Spent (sec) Mean ± S.E.M. (Male Rj:NMRI mice; [1]): 120.1 ± 13.1 s; Closed Arms Number of Entries Mean ± S.E.M. (Male Rj:NMRI mice; 16 mg/kg p.o., positive control, same experimental conditions, t test vs vehicle p < 0.05): 11.9 ± 1.5 (*); Closed Arms Number of Entries % change (Male Rj:NMRI mice; [2]): +59%; Open Arms Number of Entries % change (Male Rj:NMRI mice; [2]): +350%; Open Arms Time Spent (sec) % change (Male Rj:NMRI mice; [2]): +567%

Q: With `NS(=O)(=O)NC[C@H]1COc2cc(Cl)ccc2O1` [Compound #8, (2S)-(-)-N-(6-Chloro-2,3-dihydro-benzo[1,4]dioxin-2-ylmethyl)-sulfamide] as the compound, how does the “Number of Punished Crossings Mean ± S.E.M.” value (Mouse; 30 mg/kg p.o. 60 minutes before the test, 1 minute test, t test vs vehicle (NS)) read?
A: Its value is 4.5 ± 0.6 (NS).

Q: What about the “Number of Punished Crossings % Change” value (Mouse; [3]) of the same compound?
A: The value was “+15%”.

Q: And the “Number of Punished Crossings Mean ± S.E.M.” value (Mouse; 60 mg/kg p.o. 60 minutes before the test, 1 minute test, t test vs vehicle (NS))?
A: Its value is 4.5 ± 0.3 (NS).

Q: And the “Number of Punished Crossings % Change” value (Mouse; [4])?
A: Its value is “+15%”.

Q: And the “Number of Punished Crossings Mean ± S.E.M.” value (Mouse; 120 mg/kg p.o. 60 minutes before the test, 1 minute test, t test vs vehicle p < 0.01)?
A: Its value is 6.6 ± 0.6 (**).

Q: What about the “Number of Punished Crossings % Change” value (Mouse; [5]) of the same compound?
A: The value was “+69%”.

Q: What about the “Closed Arms Number of Entries Mean ± S.E.M.” value (Male Rj:NMRI mice; [6]) of the same compound?
A: The value was 8.5 ± 0.9 (NS).

Q: And the “Open Arms Number of Entries Mean ± S.E.M.” value (Male Rj:NMRI mice; [6])?
A: Its value is 3.9 ±0.7 (NS).

Q: And the “Open Arms Time Spent (sec) Mean ± S.E.M.” value (Male Rj:NMRI mice; 30 mg/kg p.o. 60 minutes before the test, 5 minutes in maze, t test vs vehicle p < 0.01)?
A: The value was 44.6 ± 8.0 s.

Q: What about the “Closed Arms Number of Entries % change” value (Male Rj:NMRI mice; [3]) of the same compound?
A: Its value is “+13%”.

Q: And the “Open Arms Number of Entries % change” value (Male Rj:NMRI mice; [3])?
A: Its value is “+50%”.

Q: And the “Open Arms Time Spent (sec) % change” value (Male Rj:NMRI mice; [3])?
A: The value was “+148%”.

Q: And the “Closed Arms Number of Entries Mean ± S.E.M.” value (Male Rj:NMRI mice; [7])?
A: Its value is 10.3 ± 0.8 (**).

Q: What about the “Open Arms Number of Entries Mean ± S.E.M.” value (Male Rj:NMRI mice; [7]) of the same compound?
A: The value was 5.9 ± 1.0 (**).

Q: And the “Open Arms Time Spent (sec) Mean ± S.E.M.” value (Male Rj:NMRI mice; [7])?
A: Its value is 54.1 ± 10.6 s.

Q: What about the “Closed Arms Number of Entries % change” value (Male Rj:NMRI mice; [4]) of the same compound?
A: The value was “+37%”.

Q: And the “Open Arms Number of Entries % change” value (Male Rj:NMRI mice; [4])?
A: The value was “+127%”.

Q: And the “Open Arms Time Spent (sec) % change” value (Male Rj:NMRI mice; [4])?
A: Its value is “+201%”.

Q: And the “Open Arms Time Spent (sec) Mean ± S.E.M.” value (Male Rj:NMRI mice; 120 mg/kg p.o. 60 minutes before the test, 5 minutes in maze, t test vs vehicle p < 0.01)?
A: The value was 38.6 ± 5.2 s.

Q: What about the “Closed Arms Number of Entries Mean ± S.E.M.” value (Male Rj:NMRI mice; [8]) of the same compound?
A: The value was 10.0 ± 1.1 (*).

Q: And the “Open Arms Number of Entries Mean ± S.E.M.” value (Male Rj:NMRI mice; [8])?
A: Its value is 4.5 ± 0.6 (*).

Q: And the “Closed Arms Number of Entries % change” value (Male Rj:NMRI mice; [5])?
A: Its value is “+33%”.

Q: And the “Open Arms Number of Entries % change” value (Male Rj:NMRI mice; [5])?
A: Its value is “+73%”.

Q: What about the “Open Arms Time Spent (sec) % change” value (Male Rj:NMRI mice; [5]) of the same compound?
A: Its value is “+114%”.
